Assay results from ChEMBL document CHEMBL1201862, “PubChem BioAssay data set” (2004).
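Each compound was tested at five concentrations against cells in 96-well plates for 48 hours. Abbreviation: GI50, concentration required for 50% inhibition of growth.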 The source made the active and inactive calls. No stated cut-off is given here; in the data, active = GI50 up to about 1.1 µM and inactive = higher.

Key:
Test in all cases: inhibition of tumour cell growth, NCI panel, 48 h
786-0 = test system: 786-0
A549 = test system: A549
ACHN = test system: ACHN
CAKI-1 = test system: CAKI-1
CCRF-CEM = test system: CCRF-CEM
COLO 205 = test system: COLO 205
DU-145 = test system: DU-145
EKVX = test system: EKVX
HCC 2998 = test system: HCC 2998
HCT-116 = test system: HCT-116
HCT-15 = test system: HCT-15
HL-60 = test system: HL-60
HOP-62 = test system: HOP-62
HOP-92 = test system: HOP-92
HT-29 = test system: HT-29
Hs-578T = test system: Hs-578T
IGROV-1 = test system: IGROV-1
K562 = test system: K562
KM12 = test system: KM12
LOX IMVI = test system: LOX IMVI
M14 = test system: M14
MCF7 = test system: MCF7
MDA-MB-231 = test system: MDA-MB-231
MDA-MB-435 = test system: MDA-MB-435
MDA-N = test system: MDA-N
MOLT-4 = test system: MOLT-4
Malme-3M = test system: Malme-3M
NCI-H226 = test system: NCI-H226
NCI-H23 = test system: NCI-H23
NCI-H460 = test system: NCI-H460
NCI-H522 = test system: NCI-H522
NCI/ADR-RES = test system: NCI/ADR-RES
OVCAR-3 = test system: OVCAR-3
OVCAR-4 = test system: OVCAR-4
OVCAR-5 = test system: OVCAR-5
OVCAR-8 = test system: OVCAR-8
PC-3 = test system: PC-3
RPMI-8226 = test system: RPMI-8226
SF-268 = test system: SF-268
SF-295 = test system: SF-295
SF-539 = test system: SF-539
SK-MEL-28 = test system: SK-MEL-28
SK-MEL-2 = test system: SK-MEL-2
SK-MEL-5 = test system: SK-MEL-5
SN12C = test system: SN12C
SNB-19 = test system: SNB-19
SNB-75 = test system: SNB-75
SR = test system: SR
SW-620 = test system: SW-620
T47D = test system: T47D
TK-10 = test system: TK-10
U-251 = test system: U-251
UACC-257 = test system: UACC-257
UO-31 = test system: UO-31
A498 = test system: A498
RXF 393 = test system: RXF 393
SK-OV-3 = test system: SK-OV-3
UACC-62 = test system: UACC-62

Measured: GI50

CCn1cc(C(=O)O)c(=O)c2ccc(C)nc21 [NALIDIXIC ACID]
> 100 µM: HCT-15
inactive: 786-0 > 100 µM | A549 > 100 µM | ACHN > 100 µM | CAKI-1 > 100 µM | CCRF-CEM > 100 µM | COLO 205 > 100 µM | DU-145 > 100 µM | EKVX > 100 µM | HCC 2998 > 100 µM | HCT-116 > 100 µM | HL-60 > 100 µM | HOP-62 > 100 µM | HOP-92 26.9 µM | HT-29 > 100 µM | Hs-578T > 100 µM | IGROV-1 > 100 µM | K562 > 100 µM | KM12 > 100 µM | LOX IMVI > 100 µM | M14 > 100 µM | MCF7 > 100 µM | MDA-MB-231 > 100 µM | MDA-MB-435 > 100 µM | MDA-N > 100 µM | MOLT-4 > 100 µM | Malme-3M > 100 µM | NCI-H226 > 100 µM | NCI-H23 > 100 µM | NCI-H460 > 100 µM | NCI-H522 > 100 µM | NCI/ADR-RES > 100 µM | OVCAR-3 > 100 µM | OVCAR-4 > 100 µM | OVCAR-5 > 100 µM | OVCAR-8 > 100 µM | PC-3 > 100 µM | RPMI-8226 > 100 µM | SF-268 > 100 µM | SF-295 > 100 µM | SF-539 > 100 µM | SK-MEL-28 > 100 µM | SK-MEL-2 > 100 µM | SK-MEL-5 > 100 µM | SN12C > 100 µM | SNB-19 > 100 µM | SNB-75 97.3 µM | SR > 100 µM | SW-620 > 100 µM | T47D > 100 µM | TK-10 > 100 µM | U-251 > 100 µM | UACC-257 > 100 µM | UO-31 67 µM

COc1c(-c2ccc3c(c2)OCO3)oc2cc(O)cc(O)c2c1=O
55.6 µM: HCT-15
inactive: 786-0 38.4 µM | A498 21.9 µM | A549 47.3 µM | ACHN 27 µM | CAKI-1 27.7 µM | CCRF-CEM 41.4 µM | COLO 205 > 100 µM | DU-145 59.3 µM | EKVX 43.7 µM | HCC 2998 78.9 µM | HCT-116 62.1 µM | HL-60 41.5 µM | HOP-62 18.6 µM | HOP-92 34.3 µM | HT-29 36.6 µM | Hs-578T 14.3 µM | IGROV-1 26.2 µM | K562 45.1 µM | KM12 64.7 µM | LOX IMVI 45.4 µM | M14 69.8 µM | MCF7 21.6 µM | MDA-MB-231 97.7 µM | MDA-MB-435 45.7 µM | MDA-N 62.7 µM | MOLT-4 21.2 µM | NCI-H226 > 100 µM | NCI-H23 63.4 µM | NCI-H460 64 µM | NCI-H522 19.2 µM | NCI/ADR-RES 46 µM | OVCAR-4 29.5 µM | OVCAR-5 > 100 µM | OVCAR-8 45.4 µM | PC-3 57.3 µM | RPMI-8226 34 µM | RXF 393 14.9 µM | SF-268 32.6 µM | SF-295 34.4 µM | SF-539 39.6 µM | SK-MEL-28 > 100 µM | SK-MEL-2 > 100 µM | SK-MEL-5 56.5 µM | SK-OV-3 19.6 µM | SN12C 51.1 µM | SNB-19 > 100 µM | SNB-75 13.4 µM | SR 22.6 µM | T47D 12.9 µM | TK-10 95.1 µM | U-251 75.2 µM | UACC-257 > 100 µM | UACC-62 46.6 µM | UO-31 7.19 µM

Oc1cc(-c2cccc(OC(F)(F)F)c2)nc2ccc(N3CCCC3)cc12
inactive: T47D 26.3 µM
active: 786-0 0.00014 µM | A498 0.000322 µM | A549 0.0103 µM | ACHN 0.000622 µM | CAKI-1 0.01 µM | CCRF-CEM 0.00012 µM | COLO 205 0.00303 µM | DU-145 0.000316 µM | EKVX 0.031 µM | HCC 2998 0.000547 µM | HCT-116 0.000121 µM | HL-60 < 0.0001 µM | HOP-62 0.000441 µM | HOP-92 0.0731 µM | HT-29 0.000217 µM | Hs-578T 0.01 µM | IGROV-1 0.00131 µM | K562 < 0.0001 µM | KM12 0.000129 µM | LOX IMVI 0.000205 µM | M14 0.00012 µM | MCF7 0.0337 µM | MDA-MB-231 0.00156 µM | MDA-MB-435 < 0.0001 µM | MDA-N < 0.0001 µM | MOLT-4 0.000335 µM | Malme-3M 0.000114 µM | NCI-H226 0.000142 µM | NCI-H23 0.0191 µM | NCI-H460 0.0025 µM | NCI-H522 0.000376 µM | NCI/ADR-RES 0.00016 µM | OVCAR-3 < 0.0001 µM | OVCAR-5 0.000297 µM | OVCAR-8 0.000426 µM | PC-3 0.000318 µM | RPMI-8226 0.000261 µM | RXF 393 0.000116 µM | SF-268 0.000306 µM | SF-295 < 0.0001 µM | SF-539 0.000147 µM | SK-MEL-2 0.000127 µM | SK-MEL-5 0.000209 µM | SK-OV-3 0.000117 µM | SN12C 0.00041 µM | SNB-19 0.00018 µM | SNB-75 < 0.0001 µM | SR < 0.0001 µM | SW-620 0.00019 µM | TK-10 0.00457 µM | U-251 < 0.0001 µM | UACC-257 < 0.0001 µM | UACC-62 < 0.0001 µM | UO-31 0.000555 µM
0.0004 µM: HCT-15
